Test [1] has as its system GL261 glioblastoma cells. Briefly: In vivo labelling of GL261 glioma in mouse brain after i.p. injection. To be noted: GL261 tumor-bearing mouse brain, 6 hours after injection, 6 days after implantation. An excerpt: We used in vitro and in vivo cells from a mouse high grade glioma cell line, GL261, Briefly, twenty-four 2- to 3-month-old female C57BIC mice were stereotactically implanted under deep general anesthesia (isoflurane supplemented with nitrous oxide) with 1×10^5 GL261 glioblastoma cells. The cells were stereotactically inoculated through a burr hole by a Hamilton syringe into the left striatum (coordinates: 1 mm anteroposterior and 1 mm lateral from bregma, at a depth of 3 mm). All experimental procedures were conducted in accordance with the European Communities Council Directive of 24 Nov. 1986 (86/609 EEC), Recommendation 18/06/2007, Dir. 2010/63/UE, and the Italian law for care and use of experimental animals (DL116/92) and were approved by the Italian Ministry of Health (prot. E669C.15) and the Bioethical Committee of the University of Turin. All animals were housed under a 12-hour light-dark cycle in an environmentally controlled room. All experiments were designed to minimize the numbers of animals used and their discomfort. In each experiment, animals with tumors were allocated to two groups and i.p. injected with probe 14 or probe 13. All drugs were administered intraperitoneally, and treatments were started days 6 after tumor implantation. […] Quantitative and phenotypic evaluations were made on images acquired with a Leica TCS SP5 confocal microscope.

Test [2] concerns the target T1, ALDH1A2 (Homo sapiens, UniProt O94788).
T1 construct: His-tag; made in house; host or cells: bacterial cells
T1 sequence (O94788 1-518): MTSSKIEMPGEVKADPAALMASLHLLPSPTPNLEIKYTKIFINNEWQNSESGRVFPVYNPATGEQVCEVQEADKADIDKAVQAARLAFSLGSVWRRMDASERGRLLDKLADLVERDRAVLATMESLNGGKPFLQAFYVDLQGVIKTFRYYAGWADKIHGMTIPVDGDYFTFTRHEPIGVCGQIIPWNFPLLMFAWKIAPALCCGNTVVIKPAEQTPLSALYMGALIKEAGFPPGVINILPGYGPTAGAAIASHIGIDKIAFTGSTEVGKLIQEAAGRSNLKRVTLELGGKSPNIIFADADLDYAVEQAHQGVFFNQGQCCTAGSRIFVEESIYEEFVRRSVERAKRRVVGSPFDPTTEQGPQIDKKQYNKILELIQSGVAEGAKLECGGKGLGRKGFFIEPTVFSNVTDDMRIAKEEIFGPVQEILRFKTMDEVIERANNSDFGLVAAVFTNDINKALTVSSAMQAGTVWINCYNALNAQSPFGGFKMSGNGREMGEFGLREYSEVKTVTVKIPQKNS
Nature of the test: KD evaluation by probe fluorescence (Tecan SPARK). In kind it is binding. To be noted: probe fixed at 10 μM, isoenzyme 100 μM to 1 μM. Here is the method:
A common protocol to express and purify all three members of the ALDHIA subfamily has been optimized. Briefly, induced cells, collected by centrifugation, were re-suspended in an appropriate volume of lysis buffer (50 mM Na2HPO4, 300 mM NaCl, 1 mM β-mercaptoethanol, 20 mM imidazole, pH 7.5) added of benzonase nuclease (250 U/μL) and Protease inhibitor cocktail from SIGMA. After ultracentrifugation, the clarified sample was purified by a His-tag affinity chromatography followed by size-exclusion chromatography, using an AKTA FPLC system, at 4° C. To evaluate the purity and homogeneity of the protein, after each purification step, eluted d fractions were analyzed by SDS-PAGE and the protein quantification was always determined by Bradford protein assay.
KD evaluation: on a Tecan—SPARK, probe 14 and 13 were tested at a fixed concentration of 10 μM. All the isoenzymes were tested in wide range of concentrations (from 100 μM to 1 μM). The analysis was settled with a BW of 20, monitoring the Em wavelength in range comprised between 520 and 535 nm for probe 14 and 520 and 580 nm for probe 13. The Ex was fixed at 420 nm for probe 14 and 440 nm for probe 13. The test was performed in quadruplicate with all the three isoenzymes. The recipe of the buffer reaction was the same as described before.

The target of test [3] is T2, ALDH1A3 (Homo sapiens, UniProt P47895).
T2 construct: His-tag; made in house; host or cells: bacterial cells
T2 sequence (P47895 1-512): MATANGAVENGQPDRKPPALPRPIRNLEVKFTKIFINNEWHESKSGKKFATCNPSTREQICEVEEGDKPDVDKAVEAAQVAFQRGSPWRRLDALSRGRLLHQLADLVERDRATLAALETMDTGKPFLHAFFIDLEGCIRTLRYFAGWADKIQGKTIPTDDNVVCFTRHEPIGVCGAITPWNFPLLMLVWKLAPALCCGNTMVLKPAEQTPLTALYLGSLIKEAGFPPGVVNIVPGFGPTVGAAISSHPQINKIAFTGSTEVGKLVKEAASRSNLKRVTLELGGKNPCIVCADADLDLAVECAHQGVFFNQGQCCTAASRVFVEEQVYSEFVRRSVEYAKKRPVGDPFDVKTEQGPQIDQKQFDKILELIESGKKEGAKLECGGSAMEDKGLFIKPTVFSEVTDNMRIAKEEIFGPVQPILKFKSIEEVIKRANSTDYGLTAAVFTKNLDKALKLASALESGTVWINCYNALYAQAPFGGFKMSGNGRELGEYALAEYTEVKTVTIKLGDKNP
Nature of the test: Fluorescence of probes in buffer and in complex with the isoenzymes (Tecan SPARK). In kind it is binding. Particulars: in complex with the three isoenzymes, in particular ALDH1A3. Here is the method: All five compounds were dissolved in DMSO (100%) to obtain two different initial stocks, one at 10 mM and a second one at 1 mM. […] The assay can be executed at a maximum DMSO percentage of 15%. The maximum probe concentration tested was 500 uM—15% DMSO. All the compounds were tested using a Tecan—SPARK, to analyze their absorbance, excitation and emission wavelength. Based on the literature, the absorbance of the curcumin by itself is comprised between 420 and 425 nm. At first, we measured the absorbance, and from those values, we performed a 3D analysis to highlights the correct Ex and Em wavelengths. To avoid any possible background in the fluorescence signal we performed a screening of every possible buffer used in our assays.

As for `COc1cc(/C=C/C(=O)/C=C(O)/C=C/c2ccc(OCc3cn(CCOc4ccc(C=O)cc4)nn3)c(OC)c2)ccc1O` [Compound 13], in test [1], the “probe fluorescence / penetration in tumor cells in vivo” value was “fluoresce in green”. For the same compound, the Kd in test [2] is 36.9 µM. Further, the “increase of fluorescence in complex with the isoenzymes” value in test [3] is “significant positive increment”.
The corresponding values for `CCOC(=O)Cn1cc(COc2ccc(/C=C/C(O)=C/C(=O)/C=C/c3ccc(O)c(OC)c3)cc2OC)nn1` [Compound 14] are “does not penetrate to any appreciable level”, 125 µM and “significant positive increment”.

Usually Kd stands for the free concentration of one partner at which half of the binding sites on the other are occupied at equilibrium, for simple one-to-one binding.

For the origin of these results see US20250281649A1, “PROBE DIRECTED TO ENZYME ALDH1A3 AND USE THEREOF IN THE DIAGNOSIS OF GLIOBLASTOMA” (Universita' Degli Studi Del Piemonte Orientale "A. Avogadro", priority 2021, published 2025).
